Test results from publication PMC12163657 (ACS Omega, 2025).
pIC50: −log10 of the molar value.

Tests used:
[1] = Mouse hepatocyte stability; type: in vitro ADME; conditions: hepatocytes
[2] = Human hepatocyte stability; type: in vitro ADME; conditions: hepatocytes
[3] = Plasma protein binding, rapid equilibrium dialysis, cyno plasma; type: in vitro ADME, cynomolgus monkey
AR = biological target: T1, AR (Homo sapiens, UniProt P10275); assay: Reporter assay of gene transcription activity, AR; type: cell-based; conditions: for pIC50: reporter assay
T1 sequence (P10275 1-920): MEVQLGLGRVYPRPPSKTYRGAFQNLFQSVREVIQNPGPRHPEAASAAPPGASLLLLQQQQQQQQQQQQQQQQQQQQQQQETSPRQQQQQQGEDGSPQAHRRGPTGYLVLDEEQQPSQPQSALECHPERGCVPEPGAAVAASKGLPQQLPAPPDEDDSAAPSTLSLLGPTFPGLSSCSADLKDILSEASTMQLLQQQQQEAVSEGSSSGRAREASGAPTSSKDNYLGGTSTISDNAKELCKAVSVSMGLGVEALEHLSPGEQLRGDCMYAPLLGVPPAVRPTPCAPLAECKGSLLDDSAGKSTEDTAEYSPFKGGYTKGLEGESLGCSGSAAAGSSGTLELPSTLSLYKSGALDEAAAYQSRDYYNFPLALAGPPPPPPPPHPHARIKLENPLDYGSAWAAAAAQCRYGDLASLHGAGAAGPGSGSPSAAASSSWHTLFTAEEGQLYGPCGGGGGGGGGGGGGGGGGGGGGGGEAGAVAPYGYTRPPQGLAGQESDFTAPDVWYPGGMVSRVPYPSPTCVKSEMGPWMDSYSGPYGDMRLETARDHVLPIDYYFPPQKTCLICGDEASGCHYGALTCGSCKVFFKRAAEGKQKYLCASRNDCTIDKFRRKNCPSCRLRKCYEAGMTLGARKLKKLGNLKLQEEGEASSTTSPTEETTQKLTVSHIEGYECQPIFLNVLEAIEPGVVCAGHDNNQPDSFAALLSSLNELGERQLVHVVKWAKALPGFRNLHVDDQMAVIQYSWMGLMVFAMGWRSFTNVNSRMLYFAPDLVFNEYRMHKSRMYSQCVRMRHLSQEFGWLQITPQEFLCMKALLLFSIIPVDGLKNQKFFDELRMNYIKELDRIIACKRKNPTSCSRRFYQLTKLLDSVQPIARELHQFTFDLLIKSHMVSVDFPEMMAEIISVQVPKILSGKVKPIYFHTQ

ESR1 Tyr537Ser = biological target: T2, ESR1 Tyr537Ser (Homo sapiens, UniProt P03372, Y537S); assay: AP; type: cell-based
T2 sequence (P03372 1-595 Y537S): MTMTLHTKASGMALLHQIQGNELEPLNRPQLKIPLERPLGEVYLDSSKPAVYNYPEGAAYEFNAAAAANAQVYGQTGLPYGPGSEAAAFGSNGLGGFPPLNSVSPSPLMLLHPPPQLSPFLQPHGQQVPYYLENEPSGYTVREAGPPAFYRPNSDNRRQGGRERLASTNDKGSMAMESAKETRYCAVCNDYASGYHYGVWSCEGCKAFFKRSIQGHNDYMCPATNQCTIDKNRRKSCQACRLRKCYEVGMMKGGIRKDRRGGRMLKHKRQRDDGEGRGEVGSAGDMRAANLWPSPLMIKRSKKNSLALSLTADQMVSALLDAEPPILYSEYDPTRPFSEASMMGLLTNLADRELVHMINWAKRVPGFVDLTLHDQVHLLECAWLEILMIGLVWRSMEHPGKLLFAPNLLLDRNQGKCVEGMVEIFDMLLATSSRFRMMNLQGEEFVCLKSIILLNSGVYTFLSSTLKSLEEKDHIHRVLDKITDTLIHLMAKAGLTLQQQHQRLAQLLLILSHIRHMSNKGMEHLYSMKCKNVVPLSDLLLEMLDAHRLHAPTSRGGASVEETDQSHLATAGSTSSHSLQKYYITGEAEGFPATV

[4] = test system: CAMA-1 ESR1 Tyr537Ser cells; assay: CAMA-1 cell proliferation, ESR1 Tyr537Ser; type: cell-based; conditions: Homo sapiens, CAMA-1, read-out: CAMA-1 cell prolif. pIC50 (converted)
BCRP = biological target: T3, BCRP (Homo sapiens, UniProt Q9UNQ0); assay: BCRP inhibition, membrane vesicles; type: in vitro ADME
T3 sequence (Q9UNQ0 1-655): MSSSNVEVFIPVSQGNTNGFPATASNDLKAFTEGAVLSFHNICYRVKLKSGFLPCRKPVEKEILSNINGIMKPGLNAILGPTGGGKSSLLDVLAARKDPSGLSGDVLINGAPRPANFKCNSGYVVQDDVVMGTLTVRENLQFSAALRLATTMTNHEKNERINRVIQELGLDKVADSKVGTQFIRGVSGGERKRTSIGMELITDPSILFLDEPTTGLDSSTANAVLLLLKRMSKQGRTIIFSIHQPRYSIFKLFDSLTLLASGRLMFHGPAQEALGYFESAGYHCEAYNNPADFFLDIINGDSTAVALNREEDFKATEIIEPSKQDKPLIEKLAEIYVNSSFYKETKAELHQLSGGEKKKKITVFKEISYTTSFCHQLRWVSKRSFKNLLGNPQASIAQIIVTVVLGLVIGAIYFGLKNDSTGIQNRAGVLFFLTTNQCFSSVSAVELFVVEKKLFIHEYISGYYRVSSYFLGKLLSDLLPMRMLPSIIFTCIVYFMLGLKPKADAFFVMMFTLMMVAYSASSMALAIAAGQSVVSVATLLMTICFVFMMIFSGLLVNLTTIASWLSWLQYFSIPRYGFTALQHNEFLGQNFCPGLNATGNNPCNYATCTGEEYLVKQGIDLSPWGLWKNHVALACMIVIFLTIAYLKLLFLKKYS

[5] = Single-dose pharmacokinetics, mouse; type: in vivo; conditions: serum

With CCCN1CC(Oc2ccc([C@@H]3c4[nH]c5ccccc5c4C[C@@H](C)N3CC(C)(C)F)cc2)C1 [compound 21, (1R,3R)-2-(2-Fluoro-2-methylpropyl)-3-methyl-1-(4-((1-propylazetidin-3-yl)oxy)phenyl)-2,3,4,9-tetrahydro-1H-pyrido[3,4-b]indole] the half-life [1] was > 6 h, the hepatocyte CLint [1] was < 3.9 µL/min/1e6 cells and the half-life [2] was 2.17 h. For the same molecule, the hepatocyte CLint [2] was 10.7 µL/min/1e6 cells, the “Plasma free drug percentage” value [3] was 0.13% and the pIC50 (AR; AR pIC50, agonist mode, agonist mode) was < 5.50. For the same molecule, the pIC50 (AR; AR pIC50, antag. mode, antag. mode (agonist-induced activity)) was 5.80, the “agonist cross-reactivity on AR” value (AR; in words) was “no agonist cross-reactivity” and the pIC50 (ESR1 Tyr537Ser) was 7.30. The IC50 [4] was 12.6 nM, the pIC50 (BCRP) was < 5.30 and the AUC ([5]; iv, 0.5 mg/kg) was 161 ng·h/mL. It also gave a Cmax ([5]; iv, 0.5 mg/kg) of 29 ng/mL, a Vd ([5]; iv, 0.5 mg/kg) of 27 L/kg and a clearance ([5]; iv, 0.5 mg/kg) of 51.7 mL/min/kg. The half-life ([5]; iv, 0.5 mg/kg) was 7 h, the AUC ([5]; po, 5 mg/kg) was 1030 ng·h/mL and the Cmax ([5]; po, 5 mg/kg) was 91 ng/mL. The Tmax ([5]; po, 5 mg/kg) was 1 h, the bioavailability ([5]; po, 5 mg/kg) was 72% and the half-life ([5]; po, 5 mg/kg) was 10 h.
